From ChEMBL document CHEMBL4417640, “Inhibitors of mtor-deptor interactions and methods of use thereof” (2018)
The source made the active and inactive calls. The rule behind the calls is not given here.

Key:
OPM-2 [1] = assay: Induction of apoptosis in human OPM2 cells at 0.12 to 2 uM incubated for 48 hrs incubated for 48 hrs by flow cytometry; format: functional, cell-based
RPMI-8226 [2] = assay: Induction of apoptosis in human RPMI8226 cells transfected with DEPTOR at 0.12 to 1 uM by flow cytometry; format: functional, cell-based
RPMI-8226 [3] = assay: Toxicity in human RPMI8226 cells xenografted in mouse assessed as effect on hematocrit at 20 mg/kg, ip dosed daily for 4 days; format: organism-based; details: in vivo, 96 h
MM1.S [4] = assay: Cytotoxicity in human MM1S cells at 0.25 to 2 uM incubated for 48 hrs in presence of RAPTOR siRNA by MTT assay; format: functional, cell-based
RPMI-8226 [5] = assay: Toxicity in human RPMI8226 cells xenografted in mouse assessed as effect on platelet count at 20 mg/kg, ip dosed daily for 4 days; format: organism-based; details: in vivo, 96 h
RPMI-8226 [6] = assay: Toxicity in human RPMI8226 cells xenografted in mouse assessed as effect on hemoglobin concentration at 20 mg/kg, ip dosed daily for 4 days; format: organism-based; details: in vivo, 96 h
RPMI-8226 [7] = assay: Toxicity in human RPMI8226 cells xenografted in mouse assessed as effect on normal WBC counts at 20 mg/kg, ip dosed daily for 4 days; format: organism-based; details: in vivo, 96 h
[8] = target: T1, DEP domain-containing mTOR-interacting protein (Homo sapiens, UniProt Q8TB45); assay: Induction of proteasome-dependent DEPTOR degradation in human RPMI8226 cells at 0.5 to 2 uM; format: cell-based
RPMI-8226 [9] = assay: Cytotoxicity in human RPMI8226 cells transfected with DEPTOR at 0.25 to 1 uM incubated for 48 hrs by MTT assay; format: functional, cell-based
RPMI-8226 [10] = assay: Antitumor activity against human RPMI8226 cells xenografted in mouse assessed as reduction in tumor volume at 20 mg/kg, ip dosed daily for 4 days; format: functional, organism-based
RPMI-8226 [11] = assay: Induction of apoptosis in human RPMI8226 cells at 0.12 to 2 uM by flow cytometry; format: functional, cell-based
OPM-2 [12] = assay: Cytotoxicity in human OPM2 cells incubated for 48 hrs by MTT assay; format: functional, cell-based; details: OPM-2, 48 h
[13] = Therapeutic index, ratio of IC50 for cytotoxicity against human PBL cells incubated for 48 hrs by MTT assay to IC50 for cytotoxicity against human MM1S cells incubated for 48 hrs by MTT assay; format: toxicity, cell-based; details: PBL cells versus MM1S cells, read-out: Ratio IC50
NCI-H929 = assay: Induction of apoptosis in human NCI-H929 cells at 0.12 to 2 uM incubated for 48 hrs by flow cytometry; format: functional, cell-based
[14] = target: T1, DEP domain-containing mTOR-interacting protein; assay: Inhibition of DEPTOR in human RPMI8226 cells assessed as induction of mTORC1 activation at 0.5 uM incubated for 6 hrs co-immunoprecipitation assay; format: cell-based
[15] = target: T1, DEP domain-containing mTOR-interacting protein; assay: Inhibition of DEPTOR in human RPMI8226 cells assessed as increase in mTOR kinase activity by measuring induction of p21 expression at 0.25 to 1 uM uM by Western blot analysis; format: cell-based
MM1.S [16] = assay: Cytotoxicity in human MM1S cells incubated for 48 hrs by MTT assay; format: functional, cell-based
RPMI-8226 [17] = assay: Toxicity in human RPMI8226 cells at 0.5 uM incubated for 6 hrs; format: cell-based; details: rpmi-8226, 6 h
RPMI-8226 [18] = assay: Toxicity in human RPMI8226 cells at 0.05 to 0.2 uM incubated for 6 hrs; format: cell-based; details: rpmi-8226, 6 h
RPMI-8226 [19] = assay: Induction of p70 degradation in human RPMI8226 cells at 1 to 2 uM incubated for 6 hrs by Western blot analysis; format: cell-based; details: rpmi-8226, 6 h
RPMI-8226 [20] = assay: Toxicity in human RPMI8226 cells at 1 to 2 uM incubated for 6 hrs; format: cell-based; details: rpmi-8226, 6 h
[21] = target: T1, DEP domain-containing mTOR-interacting protein; assay: Inhibition of DEPTOR in human RPMI8226 cells assessed as increase in mTOR kinase activity by measuring induction of p21 expression at 0.5 to 2 uM uM by Western blot analysis; format: cell-based
MM1.S [22] = assay: Cytotoxicity in human MM1S cells at 0.12 to 1 uM incubated for 48 hrs in presence of RAPTOR siRNA by MTT assay; format: functional, cell-based
[23] = target: DEPTOR/mTOR (Homo sapiens) (UniProt P42345+Q8TB45); assay: Inhibition of DEPTOR-mTOR interaction (unknown origin) by yeast-2-hybrid screen based assay; format: protein assay
[24] = Toxicity in normal hematopoietic colony forming cells (unknown origin) assessed as reduction in colony formation at 0.5 uM
[25] = target: T1, DEP domain-containing mTOR-interacting protein; assay: Inhibition of DEPTOR in human RPMI8226 cells assessed as increase in mTOR kinase activity by measuring induction of p70 phosphorylation incubated for 6 hrs by Western blot analysis; format: cell-based
[26] = Toxicity in normal hematopoietic colony forming cells (unknown origin) assessed as reduction in colony formation at 10 uM
[27] = target: T1, DEP domain-containing mTOR-interacting protein; assay: Inhibition of DEPTOR in human RPMI8226 cells assessed as induction of mTORC1 activation at 1 uM incubated for 6 hrs co-immunoprecipitation assay; format: cell-based

T1 sequence (Q8TB45 whole entry, the tested form may be a part): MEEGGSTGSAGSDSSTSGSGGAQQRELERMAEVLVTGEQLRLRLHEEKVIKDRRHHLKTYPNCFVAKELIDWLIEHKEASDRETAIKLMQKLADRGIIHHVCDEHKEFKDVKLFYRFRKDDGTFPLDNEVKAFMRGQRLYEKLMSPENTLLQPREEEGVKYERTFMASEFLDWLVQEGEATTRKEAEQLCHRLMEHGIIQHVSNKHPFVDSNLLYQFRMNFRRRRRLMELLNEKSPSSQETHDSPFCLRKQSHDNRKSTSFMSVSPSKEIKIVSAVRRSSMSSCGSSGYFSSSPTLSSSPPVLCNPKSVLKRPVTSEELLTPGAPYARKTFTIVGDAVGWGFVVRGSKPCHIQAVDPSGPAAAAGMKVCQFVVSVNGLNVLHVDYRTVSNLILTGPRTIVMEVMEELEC
DEPTOR/mTOR (Homo sapiens), sequence (Q8TB45 whole entry, looked up, other chains not shown): as the sequence (Q8TB45 whole entry, the tested form may be a part) above

In the case of FC(F)(F)c1cccc(NN=C2C(Cl)=C(Cl)C(Cl)=C2Cl)c1, the Activity (OPM-2 [1]) is reported as “Active”, the Activity (RPMI-8226 [2]) is reported as “inactive” and the Activity (RPMI-8226 [3]) is reported as “Non-Toxic”. For the same molecule, the Activity (MM1.S [4]) was “inactive”, the Activity (RPMI-8226 [5]) was “Non-Toxic” and the Activity (RPMI-8226 [6]) was “Non-Toxic”. The Activity (RPMI-8226 [7]) was “Toxic”, the Activity [8] was “Active” and the Activity (RPMI-8226 [9]) was “inactive”. The Activity (RPMI-8226 [10]) was “Active”, the Activity (RPMI-8226 [11]) was “Active” and the IC50 (OPM-2 [12]) was 300 nM. For the same molecule, the selectivity ratio at 48 h [13] was 136, the Activity (NCI-H929) was “Active” and the “mTORC1 activation (active/not active)” value [14] was “Active”. For the same molecule, the inhibition [15] was “Active”.

With CC(C)(C)C(=O)NN=C1C(Cl)=C(Cl)C(Cl)=C1Cl the Activity (RPMI-8226 [11]) was “Active”, the selectivity ratio at 48 h [13] was 14 and the inhibition [15] was “Active”.

Cc1cccc(NN=C2C(Cl)=C(Cl)C(Cl)=C2Cl)c1 gave an IC50 (MM1.S [16]) greater than 3000 nM.

CC(C)(C)OC(=O)NN=C1c2ccccc2-c2ccccc21 gave an IC50 (MM1.S [16]) greater than 5000 nM.

Fc1ccccc1NN=C1C(Cl)=C(Cl)C(Cl)=C1Cl showed an IC50 (MM1.S [16]) greater than 3000 nM.

For O=C(NN=C1C(Cl)=C(Cl)C(Cl)=C1Cl)c1ccccc1, the Activity (RPMI-8226 [17]) was “Toxic”, the Activity (RPMI-8226 [18]) was “Non-Toxic” and the Activity (RPMI-8226 [19]) was “Toxic”. The Activity (RPMI-8226 [20]) was “Toxic”.

With CC(C)(C)OC(=O)NN=C1C(Cl)=C(Cl)C(Cl)=C1Cl the inhibition [21] was “Active”, the Activity (MM1.S [22]) was “inactive” and the Activity (RPMI-8226 [11]) was “Active”. The selectivity ratio at 48 h [13] was 45.5 and the “mTORC1 activation (active/not active)” value [14] was “inactive”.

In the case of CN(C)c1ccc(/C=C2\C=Cc3ccccc32)cc1F, the “inhibition activity call (active/inactive)” value [23] is reported as “Active” and the Activity [24] is reported as “Toxic”.

With Fc1ccc(NN=C2C(Cl)=C(Cl)C(Cl)=C2Cl)cc1 the inhibition [21] was “Active”, the Activity (MM1.S [22]) was “inactive” and the selectivity ratio at 48 h [13] was 33. For the same molecule, the “mTORC1 activation (active/not active)” value [14] was “inactive”.

Molecule CN(C)N=C1C(Cl)=C(Cl)C(Cl)=C1Cl has an IC50 (MM1.S [16]) greater than 3000 nM.

In the case of NN=c1c2ccccc2oc2ccccc12, the IC50 (MM1.S [16]) is reported as greater than 5000 nM.

ClC1=C(Cl)C(Cl)=C(Cl)C1=NNC1CCCCC1 showed an IC50 [25] greater than 5 µM and an IC50 (MM1.S [16]) greater than 3000 nM.

With Fc1cccc(NN=C2c3ccccc3-c3ccccc32)c1 the IC50 (MM1.S [16]) was greater than 5000 nM.

In the case of O=C(O)c1ccc2c(c1)CCC2, the “inhibition activity call (active/inactive)” value [23] is reported as “Active”.

COc1cccc(NN=C2C(Cl)=C(Cl)C(Cl)=C2Cl)c1 showed an IC50 (MM1.S [16]) greater than 3000 nM.

With CC(C)(C)NN=C1C(Cl)=C(Cl)C(Cl)=C1Cl the IC50 [25] was greater than 5 µM and the IC50 (MM1.S [16]) was greater than 3000 nM.

With NN=C(c1ccccc1)c1ccccc1 the IC50 (MM1.S [16]) was greater than 5000 nM.

With ClC1=C(Cl)C(Cl)=C(Cl)C1=NN(c1ccccc1)c1ccccc1 the IC50 (MM1.S [16]) was greater than 3000 nM.

In the case of O=C(c1ccc(F)cc1)N(N=C1C(Cl)=C(Cl)C(Cl)=C1Cl)C(=O)c1ccc(F)cc1, the inhibition [21] is reported as “Active”, the Activity (RPMI-8226 [11]) is reported as “Active” and the selectivity ratio at 48 h [13] is reported as 10.

For CCCCCCCCNS(=O)(=O)c1ccccc1, the “inhibition activity call (active/inactive)” value [23] was “Active”.

For NN=C1C(Cl)=C(Cl)C(Cl)=C1Cl, the Activity (OPM-2 [1]) was “Active”, the Activity [26] was “Toxic” and the IC50 [25] was 1.3 µM. The Activity (RPMI-8226 [10]) was “Active”, the Activity (RPMI-8226 [11]) was “Active” and the IC50 (OPM-2 [12]) was 4000 nM. For the same molecule, the IC50 (MM1.S [16]) was 3000 to 3300 nM, the selectivity ratio at 48 h [13] was 14.3 and the Activity (NCI-H929) was “Active”. The “mTORC1 activation (active/not active)” value [14] was “inactive”, the “inhibition activity call (active/inactive)” value [23] was “Active” and the inhibition [27] was “Active”.
